Experimental data taken from PMC10537618, “Effect of Betanin, the Major Pigment of Red Beetroot (Beta vulgaris L.), on the Activity of Recombinant Human Cytochrome P450 Enzymes” (Pharmaceuticals, 2023).

Key:
[1] = test system: CYP2B6; experiment: P450-Glo luminescence-based CYP induction assay in HepG2 cells, CYP2B6 (Luciferin-2B6); assay type: in vitro ADME, human; set-up: induction of CYP2B6 activity in HepG2 cells by positive control inducer: dose or concentration left out as unconfirmed
Description: CYP enzyme activity was measured using P50-Glo assay kits. Omeprazole (OPZ) 1 mM and rifampicin (RFC) 1 and 10 mM were used as positive controls for the luminescence-based assay. The data are expressed as a percentage of the control (DMSO 0.5%). Results are mean ± SEM of triplicate independent experiments.
HepG2 cells were seeded at a concentration of 3 × 10^4 cells per well for CYP1A2 and 1 × 10^5 cells per well for CYP2B6 and CYP2C9 in opaque white 96-well plates. After 24 h of incubation, the cells were combined with 0.5% DMSO (vehicle control), 1 mM omeprazole, 10 mM rifampicin, or 0.1–100 μM betanin for 48 h. The supernatant was then switched to fresh medium containing the same concentration of the compound and incubated for an additional 24 h. To measure luminescence, the culture medium was replaced with fresh medium containing the luciferin substrate and incubated at 37 °C in a 5% CO₂ incubator (Table 2). Next, 50 µL of each well was transferred to a well of a fresh 96-well opaque white cell culture plate and mixed with 50 µL of CYP Luciferin Detection Reagent at room temperature to initiate the enzymatic reaction. After incubation for 20 min, luminescence was measured using a SpectraMax M3 Multi-Mode Microplate Reader (Bio-Rad).

[2] = biological target: T1, recombinant CYP3A4 (Homo sapiens, UniProt P08684); experiment: Vivid fluorescence-based CYP inhibition assay, recombinant CYP3A4 (BOMCC substrate); assay type: in vitro ADME
T1 construct: purchased Thermo Fisher Scientific; host or cells: insect cells (microsomes)
Description: (§1) We measured the activity of six representative CYPs using Vivid CYP screening kits. CYP activity was evaluated using recombinant CYPs and specific fluorescent substrates 7-ethoxymethoxy-3-cyanocoumarin (EOMCC) and 7-benzyloxymethyloxy-3-cyanocoumarin (BOMCC).
(§2) Raw fluorescence data were normalized against control activity values of 0% and 100%. Control 0% activity values were obtained from samples consisting of 0.5% DMSO and the enzyme solvent buffer without the enzyme. Maximum 100% activity values were expressed as a reaction with only enzymes and 0.5% DMSO, with no other drugs. Furafylline (FRL) 100 μM, bupropion (BPP) 50 μM, omeprazole (OPZ) 50 μM, fluvoxamine (FVX) 100 μM, quinidine (QND) 50 μM, and ketoconazole (KCZ) 1 μM were used as positive controls for the fluorescence-based assay. […] Raw data were normalized using the software GraphPad Prism 8.02. The data represent the mean ± SEM of triplicate independent experiments.
Fluorescence-based assays were performed according to the manufacturer’s instructions. Control, CYP positive control inhibitor, and betanin (0.1–100 μM) solutions were prepared by diluting the compounds with Vivid CYP Reaction Buffer (Table 1). Next, 40 µL of control, CYP positive control inhibitor, or betanin solution was dispensed into the wells of black 96-well plates. A Master Pre-Mix was prepared by diluting the P450 BAC-ULOSOMES Plus Reagent and Vivid Regeneration System in Vivid CYP Reaction Buffer. The P450 BACULOSOMES Plus Reagents are microsomes made from insect cells that express human cytochrome P450 reductase and CYP450 isozyme. […] The plates were immediately measured in the kinetic mode using a SpectraMax M3 Multi-Mode Microplate Reader (Bio-Rad, Hercules, CA, USA). […] The signals were measured using a SpectraMax M3 Multi-Mode Microplate Reader (Bio-Rad). Data fitting generated a sigmoidal dose–response curve with values calculated using Microsoft Excel 2016 (Microsoft Corporation, Redmond, WA, USA).

[3] = biological target: T2, recombinant CYP2B6 (Homo sapiens, UniProt P20813); experiment: Vivid fluorescence-based CYP inhibition assay, recombinant CYP2B6 (BOMCC substrate); assay type: in vitro ADME
T2 construct: purchased Thermo Fisher Scientific; host or cells: insect cells (microsomes)
T2 sequence (P20813 1-491): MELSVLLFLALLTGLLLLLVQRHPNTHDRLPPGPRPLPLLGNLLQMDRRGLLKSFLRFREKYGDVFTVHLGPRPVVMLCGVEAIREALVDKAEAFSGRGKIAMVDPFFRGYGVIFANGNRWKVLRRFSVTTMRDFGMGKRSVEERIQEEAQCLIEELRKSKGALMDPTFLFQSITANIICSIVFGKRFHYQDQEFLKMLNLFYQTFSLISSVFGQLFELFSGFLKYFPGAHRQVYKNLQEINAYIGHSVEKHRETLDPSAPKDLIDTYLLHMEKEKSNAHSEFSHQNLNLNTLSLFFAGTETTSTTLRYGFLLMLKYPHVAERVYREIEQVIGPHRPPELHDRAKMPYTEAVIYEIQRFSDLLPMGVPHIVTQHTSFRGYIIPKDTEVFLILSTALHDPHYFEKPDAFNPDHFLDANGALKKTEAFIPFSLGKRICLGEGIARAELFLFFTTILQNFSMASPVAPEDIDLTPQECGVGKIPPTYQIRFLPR
Description: as §1, §2
(§3) Fluorescence-based assays were performed according to the manufacturer’s instructions. […] The plates were immediately measured in the kinetic mode using a SpectraMax M3 Multi-Mode Microplate Reader (Bio-Rad, Hercules, CA, USA). […] The signals were measured using a SpectraMax M3 Multi-Mode Microplate Reader (Bio-Rad). Data fitting generated a sigmoidal dose–response curve with values calculated using Microsoft Excel 2016 (Microsoft Corporation, Redmond, WA, USA).

[4] = test system: CYP2C9; experiment: P450-Glo luminescence-based CYP induction assay in HepG2 cells, CYP2C9 (Luciferin-H); assay type: in vitro ADME, human; conditions: betanin 0.1–100 μM, versus control (DMSO 0.5%)
Excerpt: (§4) Results are mean ± SEM of triplicate independent experiments.

[5] = test system: CYP1A2; experiment: P450-Glo luminescence-based CYP induction assay in HepG2 cells, CYP1A2 (Luciferin-1A2); conditions: betanin 0.1–100 μM, versus control (DMSO 0.5%)
Excerpt: as §4

[6] = biological target: T3, recombinant CYP1A2 (Homo sapiens, UniProt P05177); experiment: Vivid fluorescence-based CYP inhibition assay, recombinant CYP1A2 (EOMCC substrate); assay type: in vitro ADME
T3 construct: purchased Thermo Fisher Scientific; host or cells: insect cells (microsomes)
T3 sequence (P05177 2-516 limits assumed): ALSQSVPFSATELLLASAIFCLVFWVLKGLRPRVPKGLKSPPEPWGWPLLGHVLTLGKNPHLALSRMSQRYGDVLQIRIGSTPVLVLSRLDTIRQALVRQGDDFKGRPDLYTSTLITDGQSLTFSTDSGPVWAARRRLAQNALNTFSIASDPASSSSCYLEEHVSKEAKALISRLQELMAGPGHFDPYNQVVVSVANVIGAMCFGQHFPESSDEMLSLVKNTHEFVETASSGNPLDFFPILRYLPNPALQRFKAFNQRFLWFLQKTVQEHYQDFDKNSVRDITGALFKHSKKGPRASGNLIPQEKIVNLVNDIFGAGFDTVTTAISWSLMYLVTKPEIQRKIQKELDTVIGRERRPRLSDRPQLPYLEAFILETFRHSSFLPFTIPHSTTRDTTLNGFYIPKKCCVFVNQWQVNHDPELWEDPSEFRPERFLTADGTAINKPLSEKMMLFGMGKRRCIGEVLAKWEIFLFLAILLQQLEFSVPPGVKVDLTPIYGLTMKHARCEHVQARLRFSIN
Description: as §1, §2, §3

[7] = biological target: T4, recombinant CYP2D6 (Homo sapiens, UniProt P10635); experiment: Vivid fluorescence-based CYP inhibition assay, recombinant CYP2D6 (EOMCC substrate); assay type: in vitro ADME
T4 construct: purchased Thermo Fisher Scientific; host or cells: insect cells (microsomes)
Description: as §1, §2, §3

[8] = biological target: T5, recombinant CYP2C19 (Homo sapiens, UniProt P33261); experiment: Vivid fluorescence-based CYP inhibition assay, recombinant CYP2C19 (EOMCC substrate); assay type: in vitro ADME
T5 construct: purchased Thermo Fisher Scientific; host or cells: insect cells (microsomes)
Description: as §1, §2, §3

[9] = biological target: T1, recombinant CYP3A4; experiment: CYP3A4 enzyme kinetics, Lineweaver–Burk plot and secondary plot for Ki; assay type: in vitro ADME
Description: Next, we measured the kinetics of betanin metabolization by recombinant CYP3A4. Using the Michaelis constant (Km) and Vmax, we generated a Lineweaver–Burk plot. To obtain inhibition constant (Ki) values, various concentrations of BOMCC were incubated in the absence or presence of 3–100 μM betanin.
Data were obtained from 30 min incubation with BOMCC (1–20 μM) in the absence or presence of betanin (3–100 μM). All data are represented as mean ± SD from at least three independent experiments.
CYP activity was measured using Vivid CYP screening kits supplied with P450 BACULOSOMES Plus Reagent containing each CYP. The assays were conducted in the absence or presence of betanin and different concentrations of specific substrates. BOMCC was used as a specific substrate for CYP3A4. Lineweaver–Burk plots were generated for the determination of CYP activity in the absence or presence of betanin.

[10] = test system: HepG2 cells; experiment: MTT cell viability assay; assay type: cell-based, human; conditions: 0.1–100 μM, 48 h
Description: Human hepatocellular carcinoma (HepG2) cells were cultured in Minimum Essential Medium (MEM) supplemented with 10% fetal bovine serum and 1% penicillin–streptomycin. HepG2 cells were maintained at 37 °C in a humidified environment with a 5% CO₂ atmosphere. The culture medium was replaced every day before measuring CYP activity. HepG2 cells were grown in opaque 96-well plates at a density of 1 × 10^4 cells/well. After 24 h, the cells were added with the desired concentration of betanin for 48 h. Next, 20 µL of 5 mg/mL MTT solution in PBS was added to each well and incubated for 2 h. After removing the supernatant, 100 µL of DMSO was dispensed into each well and the plate was incubated for 10 min.

[11] = biological target: T6, recombinant CYP2C9 (Homo sapiens, UniProt P11712); experiment: Vivid fluorescence-based CYP inhibition assay, recombinant CYP2C9 (BOMCC substrate); assay type: in vitro ADME
T6 construct: purchased; host or cells: insect cells (microsomes)
Description: as §1, §2, §3

[12] = at any of the tested dosages (0.1–100 μM)
[13] = fluorescence-based, BOMCC substrate, betanin 0.1–100 μM
[14] = fluorescence-based, EOMCC substrate, betanin 0.1–100 μM

T1 sequence (P08684 2-503 limits assumed): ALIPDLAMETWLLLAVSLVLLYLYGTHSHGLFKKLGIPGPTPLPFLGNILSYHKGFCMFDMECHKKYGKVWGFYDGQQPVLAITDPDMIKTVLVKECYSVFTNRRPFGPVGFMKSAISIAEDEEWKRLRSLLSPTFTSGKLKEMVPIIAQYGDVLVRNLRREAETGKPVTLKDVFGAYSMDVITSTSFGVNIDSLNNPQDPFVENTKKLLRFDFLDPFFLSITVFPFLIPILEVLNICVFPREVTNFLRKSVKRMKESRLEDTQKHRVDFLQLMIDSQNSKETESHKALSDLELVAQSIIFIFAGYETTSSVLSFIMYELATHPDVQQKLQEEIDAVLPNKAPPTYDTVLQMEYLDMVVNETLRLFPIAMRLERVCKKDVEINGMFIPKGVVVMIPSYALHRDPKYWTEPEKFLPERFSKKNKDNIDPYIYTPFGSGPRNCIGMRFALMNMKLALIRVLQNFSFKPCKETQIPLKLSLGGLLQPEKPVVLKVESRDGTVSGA
T6 sequence (P11712 whole entry): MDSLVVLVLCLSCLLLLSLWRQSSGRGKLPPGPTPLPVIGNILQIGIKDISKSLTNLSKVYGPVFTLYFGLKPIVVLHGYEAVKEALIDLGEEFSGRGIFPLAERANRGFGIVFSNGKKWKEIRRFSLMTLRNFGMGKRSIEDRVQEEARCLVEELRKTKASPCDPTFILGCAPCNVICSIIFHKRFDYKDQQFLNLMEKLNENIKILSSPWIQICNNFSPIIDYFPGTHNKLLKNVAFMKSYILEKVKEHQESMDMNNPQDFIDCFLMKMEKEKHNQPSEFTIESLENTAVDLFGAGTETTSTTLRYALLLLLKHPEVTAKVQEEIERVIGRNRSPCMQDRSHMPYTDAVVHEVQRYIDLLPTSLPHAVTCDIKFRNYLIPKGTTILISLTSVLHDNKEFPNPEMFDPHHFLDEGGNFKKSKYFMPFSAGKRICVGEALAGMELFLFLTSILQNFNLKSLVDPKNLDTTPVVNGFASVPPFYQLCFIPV
T4 sequence (P10635 whole entry): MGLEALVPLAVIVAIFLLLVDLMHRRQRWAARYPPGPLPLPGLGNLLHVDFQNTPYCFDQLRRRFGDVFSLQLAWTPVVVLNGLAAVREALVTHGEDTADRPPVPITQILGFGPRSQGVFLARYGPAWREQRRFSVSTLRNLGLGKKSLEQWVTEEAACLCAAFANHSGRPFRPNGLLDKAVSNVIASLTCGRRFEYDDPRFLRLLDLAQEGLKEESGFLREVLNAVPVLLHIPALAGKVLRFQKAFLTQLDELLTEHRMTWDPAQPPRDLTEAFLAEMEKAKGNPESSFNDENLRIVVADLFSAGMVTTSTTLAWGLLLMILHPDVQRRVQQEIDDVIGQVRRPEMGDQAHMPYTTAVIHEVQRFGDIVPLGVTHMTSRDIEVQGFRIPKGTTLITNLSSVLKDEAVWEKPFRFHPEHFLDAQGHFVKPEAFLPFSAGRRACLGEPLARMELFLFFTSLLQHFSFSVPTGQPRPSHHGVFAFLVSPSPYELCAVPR
T5 sequence (P33261 whole entry): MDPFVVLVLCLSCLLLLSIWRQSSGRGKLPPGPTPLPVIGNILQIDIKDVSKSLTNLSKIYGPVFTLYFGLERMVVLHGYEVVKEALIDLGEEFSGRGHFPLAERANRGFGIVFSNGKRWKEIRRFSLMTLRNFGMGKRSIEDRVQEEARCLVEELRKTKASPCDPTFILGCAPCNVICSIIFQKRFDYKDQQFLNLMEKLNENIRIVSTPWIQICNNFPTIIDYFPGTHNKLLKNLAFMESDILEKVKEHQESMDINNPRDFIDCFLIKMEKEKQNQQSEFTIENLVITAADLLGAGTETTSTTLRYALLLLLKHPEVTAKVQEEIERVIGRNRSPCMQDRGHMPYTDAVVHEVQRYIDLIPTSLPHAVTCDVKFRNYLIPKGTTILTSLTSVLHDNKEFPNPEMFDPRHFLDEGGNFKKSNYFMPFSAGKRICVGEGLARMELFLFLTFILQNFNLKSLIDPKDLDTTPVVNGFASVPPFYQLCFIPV

| induction of CYP2B6 activity in HepG2 cells by positive control inducer ([1]; compared to the control group) | Structure (SMILES) | induction effect on CYP2B6 activity in HepG2 cells ([1]; betanin 0.1–100 μM, versus control (DMSO 0.5%)) | inhibition of recombinant CYP3A4 ([2]; 30 μM) [%] | inhibition of recombinant CYP3A4 ([2]; 100 μM) [%] | IC50 ([2]; fluorescence-based, BOMCC substrate, betanin 0.1–100 μM, 95% CI 19.09–23.06 μM) [µM] | inhibitory effect on recombinant CYP2B6 [3, 12] [%] | IC50 [3, 13] [µM] | induction effect on CYP2C9 activity in HepG2 cells [4] | induction effect on CYP1A2 activity in HepG2 cells [5] | inhibitory effect on recombinant CYP1A2 [6, 12] [%] | IC50 [6, 14] [µM] | inhibitory effect on recombinant CYP2D6 ([7]; 100 μM) [%] | IC50 [7, 14] [µM] | inhibitory effect on recombinant CYP2C19 [8, 12] [%] | IC50 [8, 14] [µM] | Ki ([9]; 1–20 μM BOMCC, 3, 10, 30 and 100 μM betanin, 30 min incubation, read-out: Ki (inhibition constant) for CYP3A4) [µM] | mode of inhibition of CYP3A4 ([9]; Lineweaver–Burk and secondary plots) | cytotoxicity toward HepG2 cells (MTT) [10] | inhibitory effect on recombinant CYP2C9 [11, 12] [%] | IC50 [11, 13] [µM] |
| --- | --- | --- | --- | --- | --- | --- | --- | --- | --- | --- | --- | --- | --- | --- | --- | --- | --- | --- | --- | --- |
| – | O=C(O)C1=C/C(=C/C=[N+]2/c3cc(O)c(OC4OC(CO)[C@@H](O)C(O)C4O)cc3CC2C(=O)[O-])CC(C(=O)O)N1 (stereo in doubt) [betanin, Betanin] | did not show any induction effect | 58 | 87 | 21 | ≤ 30 | > 100 | did not show any induction effect | did not show any induction effect | ≤ 30 | > 100 | 33 | > 100 | ≤ 30 | > 100 | 19.5 | competitive inhibitor | no cytotoxicity | ≤ 30 | > 100 |
| significantly induced | CO[C@H]1/C=C/O[C@@]2(C)Oc3c(C)c(O)c4c(O)c(c(/C=N/N5CCN(C)CC5)c(O)c4c3C2=O)NC(=O)/C(C)=C\C=C\[C@H](C)[C@H](O)[C@@H](C)[C@@H](O)[C@@H](C)[C@H](OC(C)=O)[C@@H]1C [rifampin, reference compound] | – | – | – | – | – | – | – | – | – | – | – | – | – | – | – | – | – | – | – |
